From PubChem BioAssay (NCI)
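Each compound was tested at five concentrations against cells in 96-well plates for 48 hours. GI50 is the concentration that inhibits growth by half. TGI is the concentration that stops growth completely.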 Where a SMILES comes first, the peptide text is derived from it. The star is where a group is joined. Cbz = O=C(OCc1ccccc1)*; Bn = c1ccc(C*)cc1

How the values were obtained:
Experiment in all cases: NCI-60 cell line screen, 48 h
EKVX NSCLC = test system: EKVX NSCLC
HCT-116 colon = test system: HCT-116 colon
M14 melanoma = test system: M14 melanoma
MALME-3M melanoma = test system: MALME-3M melanoma
MOLT-4 leukemia = test system: MOLT-4 leukemia
NCI-H226 lung = test system: NCI-H226 lung
NCI-H460 lung = test system: NCI-H460 lung
OVCAR-8 ovarian = test system: OVCAR-8 ovarian
RPMI-8226 leukemia = test system: RPMI-8226 leukemia
SK-MEL-28 melanoma = test system: SK-MEL-28 melanoma
SNB-19 CNS = test system: SNB-19 CNS
SW-620 colon = test system: SW-620 colon

In the case of `CC1C[C@]2(C[C@@H](C)C(=O)O2)OC2CC3(C)C4CCC5C(C)(C)OC(=O)CC[C@@]56C[C@@]46CC[C@]3(C)C12` (some centres not stated), the TGI (EKVX NSCLC) was over 100 µM, the TGI (HCT-116 colon) was over 100 µM and the TGI (M14 melanoma) was over 100 µM. The TGI (MALME-3M melanoma) was over 100 µM, the TGI (MOLT-4 leukemia) was over 100 µM and the TGI (NCI-H226 lung) was over 100 µM. It also gave a TGI (NCI-H460 lung) of over 100 µM, a TGI (OVCAR-8 ovarian) of over 100 µM and a TGI (RPMI-8226 leukemia) of over 100 µM. It also gave a TGI (SK-MEL-28 melanoma) of over 100 µM, a TGI (SNB-19 CNS) of over 100 µM and a TGI (SW-620 colon) of over 100 µM.

`C1CSCCSCSCCS1` was tested, and the TGI (EKVX NSCLC) was over 100 µM, the TGI (HCT-116 colon) was over 100 µM and the TGI (M14 melanoma) was over 100 µM. The TGI (NCI-H226 lung) was over 100 µM, the TGI (NCI-H460 lung) was over 100 µM and the TGI (OVCAR-8 ovarian) was over 100 µM. For the same compound, the TGI (SK-MEL-28 melanoma) was over 100 µM, the TGI (SNB-19 CNS) was over 100 µM and the TGI (SW-620 colon) was over 100 µM.

Work on `CS(=O)(=O)c1ccc2nc(-c3ccc(O)cc3)sc2c1` yielded a TGI (EKVX NSCLC) of 23.9 µM, a TGI (HCT-116 colon) of 30.5 µM and a TGI (M14 melanoma) of 38.4 µM. It also gave a TGI (MALME-3M melanoma) of 31 µM, a TGI (MOLT-4 leukemia) of over 100 µM and a TGI (NCI-H226 lung) of 36.6 µM. The TGI (NCI-H460 lung) was 35.3 µM, the TGI (OVCAR-8 ovarian) was 42.7 µM and the TGI (RPMI-8226 leukemia) was 35.7 µM. It also gave a TGI (SNB-19 CNS) of 36.2 µM and a TGI (SW-620 colon) of 38.4 µM.

`C[n+]1c2ccccc2c(CNCC(=O)O)c2ccccc21` showed a TGI (EKVX NSCLC) of 12.3 µM, a TGI (HCT-116 colon) of 1.3 µM and a TGI (M14 melanoma) of 18.4 µM. The TGI (MALME-3M melanoma) was 28.6 µM, the TGI (MOLT-4 leukemia) was 0.811 µM and the TGI (NCI-H226 lung) was 15.5 µM. The TGI (NCI-H460 lung) was 14.8 µM, the TGI (OVCAR-8 ovarian) was 7.84 µM and the TGI (RPMI-8226 leukemia) was 1.52 µM. The TGI (SNB-19 CNS) was 22.2 µM and the TGI (SW-620 colon) was 2.24 µM.

In the case of `COC(=O)C(Cc1ccc(O)cc1)NC(=O)C(COCc1ccccc1)NC(=O)OCc1ccccc1` (configuration not stated) (Cbz-Ser(Bn)-Tyr-OMe; configuration not given here), the TGI (EKVX NSCLC) was 43.8 µM, the TGI (HCT-116 colon) was 35.7 µM and the TGI (M14 melanoma) was 33.5 µM. It also gave a TGI (MALME-3M melanoma) of 39.6 µM, a TGI (MOLT-4 leukemia) of over 100 µM and a TGI (NCI-H226 lung) of 36.9 µM. For the same compound, the TGI (NCI-H460 lung) was 14.3 µM, the TGI (OVCAR-8 ovarian) was 31.8 µM and the TGI (RPMI-8226 leukemia) was over 100 µM. For the same compound, the TGI (SK-MEL-28 melanoma) was 35.9 µM, the TGI (SNB-19 CNS) was 31.2 µM and the TGI (SW-620 colon) was 32.9 µM.

`COc1ccc(-c2oc3cc(OC(C)=O)cc(OC(C)=O)c3c(=O)c2OC)cc1` was tested, and the TGI (EKVX NSCLC) was 47.8 µM, the TGI (HCT-116 colon) was 44.3 µM and the TGI (M14 melanoma) was 30.6 µM. For the same compound, the TGI (MALME-3M melanoma) was 65.6 µM, the TGI (MOLT-4 leukemia) was 68.4 µM and the TGI (NCI-H460 lung) was 37.5 µM. It also gave a TGI (OVCAR-8 ovarian) of 53.6 µM, a TGI (RPMI-8226 leukemia) of 38.3 µM and a TGI (SK-MEL-28 melanoma) of 35.5 µM. The TGI (SNB-19 CNS) was 79.4 µM and the TGI (SW-620 colon) was 39.7 µM.

`CCCCSCC(NC(=O)/C=C/c1c(C)[nH]c(=O)[nH]c1=O)C(=O)OC` (configuration not stated) gave a TGI (EKVX NSCLC) of 188 µM, a TGI (HCT-116 colon) of 246 µM and a TGI (MALME-3M melanoma) of 65.7 µM. It also gave a TGI (MOLT-4 leukemia) of 205 µM, a TGI (NCI-H226 lung) of 291 µM and a TGI (NCI-H460 lung) of 177 µM. For the same compound, the TGI (OVCAR-8 ovarian) was 246 µM, the TGI (RPMI-8226 leukemia) was 267 µM and the TGI (SK-MEL-28 melanoma) was 317 µM. The TGI (SNB-19 CNS) was 204 µM and the TGI (SW-620 colon) was 346 µM.

In the case of `O=C1c2cccc(O)c2C(=O)c2c(O)cccc21`, the TGI (EKVX NSCLC) was over 100 µM, the TGI (HCT-116 colon) was over 100 µM and the TGI (M14 melanoma) was over 100 µM. The TGI (MOLT-4 leukemia) was over 100 µM, the TGI (NCI-H226 lung) was over 100 µM and the TGI (NCI-H460 lung) was over 100 µM. For the same compound, the TGI (OVCAR-8 ovarian) was over 100 µM, the TGI (RPMI-8226 leukemia) was over 100 µM and the TGI (SK-MEL-28 melanoma) was over 100 µM. For the same compound, the TGI (SNB-19 CNS) was over 100 µM and the TGI (SW-620 colon) was over 100 µM.

Compound `C[P+](c1ccccc1)(c1ccc(Cl)cc1)c1ccc(Cl)cc1` has a TGI (EKVX NSCLC) of 99.3 µM, a TGI (HCT-116 colon) of 44.9 µM and a TGI (M14 melanoma) of 34.4 µM. It also gave a TGI (MALME-3M melanoma) of 19.6 µM, a TGI (NCI-H226 lung) of 88.6 µM and a TGI (NCI-H460 lung) of over 100 µM. It also gave a TGI (OVCAR-8 ovarian) of 36.6 µM, a TGI (RPMI-8226 leukemia) of 2.41 µM and a TGI (SK-MEL-28 melanoma) of 29 µM. The TGI (SNB-19 CNS) was 59.1 µM and the TGI (SW-620 colon) was over 100 µM.

Work on `CN(C)CCOc1cc2c(c3ccccc13)-c1ccccc1C2O` (configuration not stated) yielded a TGI (EKVX NSCLC) of 28.2 µM, a TGI (HCT-116 colon) of 26.9 µM and a TGI (MALME-3M melanoma) of 34.8 µM. It also gave a TGI (MOLT-4 leukemia) of 14.5 µM, a TGI (NCI-H226 lung) of 29.1 µM and a TGI (NCI-H460 lung) of 22 µM. It also gave a TGI (OVCAR-8 ovarian) of 24.7 µM, a TGI (RPMI-8226 leukemia) of 31.2 µM and a TGI (SK-MEL-28 melanoma) of 30.2 µM. For the same compound, the TGI (SNB-19 CNS) was 20.2 µM and the TGI (SW-620 colon) was 24.8 µM.

In the case of `NC(CCP(=O)(O)O)C(=O)O` (configuration not stated), the TGI (EKVX NSCLC) was over 100 µM, the TGI (HCT-116 colon) was over 100 µM and the TGI (M14 melanoma) was over 100 µM. It also gave a TGI (MALME-3M melanoma) of over 100 µM, a TGI (MOLT-4 leukemia) of over 100 µM and a TGI (NCI-H226 lung) of over 100 µM. The TGI (NCI-H460 lung) was over 100 µM, the TGI (OVCAR-8 ovarian) was over 100 µM and the TGI (RPMI-8226 leukemia) was over 100 µM. The TGI (SK-MEL-28 melanoma) was over 100 µM, the TGI (SNB-19 CNS) was over 100 µM and the TGI (SW-620 colon) was over 100 µM.

`N=C(N)c1ccc(-c2ccc(-c3ccc4ccccc4c3)s2)s1` gave a GI50 (EKVX NSCLC) of 2.46 µM, a TGI (EKVX NSCLC) of 7.44 µM and a GI50 (M14 melanoma) of 2.45 µM. For the same compound, the TGI (M14 melanoma) was 5.72 µM, the GI50 (MALME-3M melanoma) was 3.1 µM and the TGI (MALME-3M melanoma) was 9.36 µM. The GI50 (NCI-H226 lung) was 33.6 µM, the TGI (NCI-H226 lung) was 79.2 µM and the GI50 (NCI-H460 lung) was 1.95 µM. The TGI (NCI-H460 lung) was 3.7 µM, the GI50 (RPMI-8226 leukemia) was 2.3 µM and the TGI (RPMI-8226 leukemia) was 5.02 µM. It also gave a GI50 (SK-MEL-28 melanoma) of 2.25 µM, a TGI (SK-MEL-28 melanoma) of 6.02 µM and a GI50 (SW-620 colon) of 1.91 µM. For the same compound, the TGI (SW-620 colon) was 3.52 µM.

With `COc1ccc(N2C(=O)/C(=C\c3ccccc3)SC2c2cc(OC)c(OC)c(OC)c2)cc1` (configuration not stated) the TGI (EKVX NSCLC) was over 100 µM, the TGI (HCT-116 colon) was over 100 µM and the TGI (M14 melanoma) was over 100 µM. The TGI (MALME-3M melanoma) was over 100 µM, the TGI (MOLT-4 leukemia) was over 100 µM and the TGI (NCI-H226 lung) was over 100 µM. The TGI (OVCAR-8 ovarian) was over 100 µM, the TGI (SK-MEL-28 melanoma) was over 100 µM and the TGI (SNB-19 CNS) was over 100 µM.

`NC(=O)c1ccc([N+](=O)[O-])cc1` was tested, and the TGI (EKVX NSCLC) was over 100 µM, the TGI (M14 melanoma) was over 100 µM and the TGI (MALME-3M melanoma) was over 100 µM. It also gave a TGI (MOLT-4 leukemia) of over 100 µM, a TGI (NCI-H226 lung) of over 100 µM and a TGI (NCI-H460 lung) of over 100 µM. It also gave a TGI (OVCAR-8 ovarian) of over 100 µM, a TGI (RPMI-8226 leukemia) of over 100 µM and a TGI (SK-MEL-28 melanoma) of over 100 µM. It also gave a TGI (SNB-19 CNS) of over 100 µM and a TGI (SW-620 colon) of over 100 µM.

Work on `c1ccc(-c2n(Cc3ccc4ccccc4c3)c3ccccc3[n+]2Cc2ccc3ccccc3c2)cc1` yielded a GI50 (MALME-3M melanoma) of 0.242 µM, a TGI (MALME-3M melanoma) of 0.768 µM and a GI50 (NCI-H226 lung) of 0.352 µM. It also gave a TGI (NCI-H226 lung) of 2.01 µM, a GI50 (RPMI-8226 leukemia) of 0.208 µM and a TGI (RPMI-8226 leukemia) of 1.47 µM. The GI50 (SK-MEL-28 melanoma) was 0.359 µM, the TGI (SK-MEL-28 melanoma) was 1.31 µM and the GI50 (SW-620 colon) was 0.331 µM. The TGI (SW-620 colon) was 1.33 µM.

`O=C(Nc1ccc(Cl)cc1)c1cc([N+](=O)[O-])ccc1O` was tested, and the TGI (EKVX NSCLC) was 31.3 µM, the TGI (HCT-116 colon) was 20.8 µM and the TGI (M14 melanoma) was 18.9 µM. For the same compound, the TGI (MALME-3M melanoma) was 8.57 µM, the TGI (MOLT-4 leukemia) was 10.5 µM and the TGI (NCI-H226 lung) was 12.6 µM. The TGI (NCI-H460 lung) was over 79.8 µM, the TGI (OVCAR-8 ovarian) was 30.7 µM and the TGI (RPMI-8226 leukemia) was 10.2 µM. It also gave a TGI (SK-MEL-28 melanoma) of 15.6 µM, a TGI (SNB-19 CNS) of over 49.2 µM and a TGI (SW-620 colon) of over 53.3 µM.

In the case of `C=CCOCCC(CC=C)C(=O)CC(=O)OC` (configuration not stated), the TGI (EKVX NSCLC) was over 100 µM, the TGI (HCT-116 colon) was over 100 µM and the TGI (M14 melanoma) was over 100 µM. For the same compound, the TGI (MALME-3M melanoma) was over 100 µM, the TGI (MOLT-4 leukemia) was over 100 µM and the TGI (NCI-H226 lung) was over 100 µM. It also gave a TGI (NCI-H460 lung) of over 100 µM, a TGI (OVCAR-8 ovarian) of over 100 µM and a TGI (RPMI-8226 leukemia) of over 100 µM. It also gave a TGI (SK-MEL-28 melanoma) of over 100 µM, a TGI (SNB-19 CNS) of over 100 µM and a TGI (SW-620 colon) of over 100 µM.
